Data as given in patent US6679922B1, “Pesticide protective articles” (priority 1998, dated 2004).
Several values for one entry are separate records, joined by “and”; a condition that tells them apart may be missing. Identical values can stand only once.

Columns and labels:
[1] = Pesticide reduction at various pesticide/chlorine ratios; conditions: Pesticide/Chlorine Ratio 1:4
Source text: In certain aspects, the concentration of the pesticide (e.g., methomyl) that was exposed to the fabric was proportional to the percent reduction of the pesticide. Without being bound by a particular theory, it is believed that the pesticide/halamine ratio is more critical to reduction than the actual contact time of the pesticide with the fabric. A pesticide to halamine ratio of about 10:1 to about 1:10 is suitable for the present methods, preferably, a ratio of about 5:1 to about 1:5 is used and, more preferably, a ratio of about […] is used.

[2] = Detoxification of pesticides on cotton/polyester fabrics treated with DMDMH and chlorine bleach, percentage reduction by GC; conditions: 6% DMDMH, 5 min contact
Method: Polyester/cotton fabrics were washed in a domestic washing machine at 50° C. prior to the actual treatment of the functional compounds.
The grafting of hydantoin ring onto the cotton/polyester fabrics was carried out using a wet finishing process. The weighed fabrics were submerged into an aqueous 6% (w/w) DMDMH solution for 5 min. and then wringed through a padder to secure a wet pickup of 70-100% through a 2 dip-2 nip cycle. These wet fabrics were then oven-dried at 85° C. for 5 min. and cured at 150° C. for 5 min. Following this, the fabrics were washed in water at 50° C. for 30 min. to remove any excess chemicals on the surface of the fabrics.
After the wet finishing process, the treated fabrics were bleached with solutions containing 0.01% and 0.1% (w/v) active chlorine content. The treated fabrics were submerged into aqueous bleach solution at one of the specified concentrations at 25° C. for 15 min. Then, the fabrics were air dried and stored at standard condition (25° C., 65% relative humidity). The chemically finished fabrics were then cut into 3×3 inches square swatches for exposure to pesticides in the subsequent testing.
Methomyl and aldicarb were dissolved in methanol at three different concentrations: 250, 500 and 1000 ppm. One mL of one of these pesticide solutions was directly loaded onto a fabric swatch. A contact time of 5 min. was allowed before the exposed fabric was extracted in organic solvent for detoxification assessment and degradation analysis. Fabrics that were not treated with DMDMH and bleach were also used as control samples.
The extraction of the exposed swatches was done by soaking a swatch into an initial volume of 50 mL ethyl acetate for 15 min. with vigorous agitation. The extraction was repeated with another 50 mL of ethyl acetate; the combined 100 mL of the extracted solvent was reduced to 2 mL in volume by rotor-evaporation under partial vacuum at 40° C. To this 2-mL sample, 1 μL of 2-ethyl-5-methyl pyridine was added as an internal standard for quantitation during the chromatographic analysis. After which, 1 μL of the extracted sample was injected into a gas chromatograph.
Gas chromatography was performed on a Hewlett Packard 5890 series II GC, equipped with a nitrogen-phosphorus detector (NPD), using a 15 m×0.25 mm I.D. DB-1 column, 0.25 μm film (J&W Co.). The temperature program was initially set at 100° C. for 3 min., raised at a rate of 7° C./min. to 250° C. and held for 5 min. The injector and detector were set at 250° C. and 280° C. respectively. Helium was used as the carrier gas at a flow rate of 0.84 mL/min; hydrogen flow rate was 2.98 mL/min; nitrogen flow rate was 29.16 mL/min. A split injection was used at a split ratio of 25:1. The responses of the resulting peak areas and relative peak areas were integrated and recorded using a HP 3396 II integrator. For each sample, at least three or more repetitions at each condition were carried out.
Using the materials and methods sets forth above, three different concentrations of methomyl were detoxified by halamine structures on the fabrics. Relative peak area response factors (peak area response of pesticide divided by peak area response of internal standard) of the control fabrics were used to determine the original amount of pesticide on the fabrics at 0% reduction. […] After this difference was divided by the original amount, it was expressed as the percentage reduction of pesticide at those various concentrations.

[3] = cited from earlier work
[4] = chlorine/methomyl ratio of 10 to 1; cited from earlier work
male rats = conditions: cited from earlier work

CNC(=O)Oc1cccc2ccccc12 [Carbaryl]
Pesticide Reduction (%) [1]: 8.02%

CNC(=O)Oc1cccc2c1OC(C)(C)C2 [Carbofuran]
Pesticide Reduction (%) [1]: 13.82%

CNC(=O)ON=C(C)SC [Methomyl, S-methyl N-(methyl carbamoyloxy) thioacetimidatel]
percentage reduction of pesticide ([2]; 250 ppm pesticide, 0.01% active chlorine treatment): 9.35% and 9.4% | percentage reduction of pesticide ([2]; 250 ppm pesticide, 0.1% active chlorine treatment): 19.9% | percentage reduction of pesticide ([2]; 500 ppm pesticide, 0.1% active chlorine treatment): 18.6% | percentage reduction of pesticide ([2]; 1000 ppm pesticide, 0.01% active chlorine treatment): 4.43% and 4.4% | percentage reduction of pesticide ([2]; 1000 ppm pesticide, 0.1% active chlorine treatment): 11.63% and 11.6% | Pesticide Reduction (%) [1]: 79.52% | Vapor Pressure mm Hg (25-30° C.) [3]: 5 × 10^−5 mm Hg | disappearance in aqueous solution [4]: disappear rapidly | Toxicity, mg/kg (LD50, male rats) (male rats): 21 mg/kg
